As a reminder, the EC50 is the concentration at which the effect is half-maximal.

EC50 and Max % data for 12 compounds are collected here from US9988400B2 (Genentech, Inc., priority 2013, dated 2018).

The assay concerns the target T1, HEK cells stably transfected with tetracycline inducible hNR1 and hNR2A (Homo sapiens, UniProt Q05586+Q12879).
T1 construct: expressed in transfected cells; host or cells: HEK cells, stably transfected, tetracycline/doxycycline inducible
The assay can be described thus: Assay 1: Cell-Based Assay, cytosolic calcium response to positive allosteric modulators (with 30 μM glycine and 300 nM L-glutamate, EC30). Particulars: for EC50: cytosolic calcium response, with 30 μM glycine and 300 nM L-glutamate (EC30), — = no plateau was reached; for Max %: responses scaled relative to 100 μM L-glutamate maximal response (100%) and 0 μM L-glutamate (0%). The gist of the method:
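Cells induced 24 h with 7.5 μg mL^−1 doxycycline plus 500 μM (+)-ketamine, loaded 60 min at 37 °C with calcium dye in Mg-free HBSS (1.8 mM Ca, probenecid, 10 μM (+)-ketamine, pH 7.15). Peak RFU over 5 min after compound addition, scaled to 100 μM L-glutamate (100%) and 0 μM (0%); four-parameter Hill fit for EC50, max % if no plateau.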

T1 sequence (Q12879 23-1464, other chains not shown): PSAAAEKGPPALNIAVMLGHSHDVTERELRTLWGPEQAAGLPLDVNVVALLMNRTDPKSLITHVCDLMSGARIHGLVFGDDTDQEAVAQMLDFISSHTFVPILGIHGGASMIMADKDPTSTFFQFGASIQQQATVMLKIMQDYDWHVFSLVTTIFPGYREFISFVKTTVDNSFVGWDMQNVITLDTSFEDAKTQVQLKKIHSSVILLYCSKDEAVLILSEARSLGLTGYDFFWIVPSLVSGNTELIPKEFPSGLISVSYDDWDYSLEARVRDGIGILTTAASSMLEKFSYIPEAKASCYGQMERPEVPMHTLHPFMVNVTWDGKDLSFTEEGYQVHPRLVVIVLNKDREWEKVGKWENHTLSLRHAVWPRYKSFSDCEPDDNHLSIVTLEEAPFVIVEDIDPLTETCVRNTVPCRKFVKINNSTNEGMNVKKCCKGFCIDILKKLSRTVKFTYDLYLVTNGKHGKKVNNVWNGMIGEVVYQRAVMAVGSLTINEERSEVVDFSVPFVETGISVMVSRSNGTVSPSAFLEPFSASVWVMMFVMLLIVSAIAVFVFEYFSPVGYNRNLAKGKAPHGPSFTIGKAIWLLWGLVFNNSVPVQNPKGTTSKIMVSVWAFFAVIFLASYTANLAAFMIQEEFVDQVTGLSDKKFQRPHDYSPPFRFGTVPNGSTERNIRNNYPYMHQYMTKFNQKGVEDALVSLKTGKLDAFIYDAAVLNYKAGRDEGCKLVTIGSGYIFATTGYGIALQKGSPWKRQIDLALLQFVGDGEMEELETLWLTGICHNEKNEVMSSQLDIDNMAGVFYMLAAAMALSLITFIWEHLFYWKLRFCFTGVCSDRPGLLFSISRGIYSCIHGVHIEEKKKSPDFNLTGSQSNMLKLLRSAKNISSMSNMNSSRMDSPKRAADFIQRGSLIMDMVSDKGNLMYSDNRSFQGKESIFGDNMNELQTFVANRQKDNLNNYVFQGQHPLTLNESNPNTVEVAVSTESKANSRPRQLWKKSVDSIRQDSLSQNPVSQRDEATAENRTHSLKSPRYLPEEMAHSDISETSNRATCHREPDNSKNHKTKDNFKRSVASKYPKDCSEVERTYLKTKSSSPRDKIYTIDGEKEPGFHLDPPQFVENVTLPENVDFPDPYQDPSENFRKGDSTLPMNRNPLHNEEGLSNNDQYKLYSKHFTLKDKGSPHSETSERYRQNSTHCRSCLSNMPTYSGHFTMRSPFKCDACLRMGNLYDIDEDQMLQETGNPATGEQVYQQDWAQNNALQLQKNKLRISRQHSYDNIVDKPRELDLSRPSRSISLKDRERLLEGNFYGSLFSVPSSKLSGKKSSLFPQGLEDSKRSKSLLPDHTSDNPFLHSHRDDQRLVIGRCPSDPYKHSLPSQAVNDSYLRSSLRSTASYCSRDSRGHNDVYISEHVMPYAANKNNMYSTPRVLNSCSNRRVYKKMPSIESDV

`O=c1cc(Cn2nc(C(F)(F)F)cc2Cl)nc2sc(C(F)(F)F)c(OCC(F)(F)F)n12` [compound 243, 7-[[5-chloro-3-(trifluoromethyl)pyrazol-1-yl]methyl]-3-(2,2,2-trifluoroethoxy)-2-(trifluoromethyl)thiazolo[3,2-a]pyrimidin-5-one]: where the note is “Table 3”, the EC50 is 864 nM.

For `Cc1sc2nc(Cn3nc(C4CC4)cc3C)cc(=O)n2c1C1CC1CO` (single isomer, unassigned) [Example 15.16, 7-[(3-cyclopropyl-5-methyl-pyrazol-1-yl)methyl]-3-[2-(hydroxymethyl)cyclopropyl]-2-methyl-thiazolo[3,2-a]pyrimidin-5-one], where the note is “Table 2”, the EC50 is 17700 nM and the Max % was 115%.

Take `CCNC(=O)c1c(C(F)(F)F)sc2nc(Cn3nc(C(F)(F)F)cc3C3CC3)cc(=O)n12` [Example 16.3, 7-((5-cyclopropyl-3-(trifluoromethyl)-1H-pyrazol-1-yl)methyl)-N-ethyl-5-oxo-2-(trifluoromethyl)-5H-thiazolo[3,2-a]pyrimidine-3-carboxamide]: under “Table 2”, the concentration for a half-maximal effect (EC50) was determined as 1400 nM and the Max % is listed as 160%.

Take `Cc1sc2nc(Cc3cccc(C#N)c3F)cc(=O)n2c1[C@@H]1C[C@H]1CO` (relative stereo) [Example 20.3, 2-fluoro-3-((3-(trans-2-(hydroxymethyl)cyclopropyl)-2-methyl-5-oxo-5H-thiazolo[3,2-a]pyrimidin-7-yl)methyl)benzonitrile]: under “Table 2”, the concentration for a half-maximal effect (EC50) was determined as 1800 nM and the Max % is given as 148%.

Regarding `Cc1sc2nc(COc3ccc(F)cc3)cc(=O)n2c1C(=O)NCC#N` [Example 1.1, N-(cyanomethyl)-7-((4-fluorophenoxy)methyl)-2-methyl-5-oxo-5H-thiazolo[3,2-a]pyrimidine-3-carboxamide], where the note is “Table 2”, the EC50 was determined as 9600 nM and the Max % is listed as 63%.

With `Cc1sc2nc(Cn3nc(C(F)(F)F)cc3Br)cc(=O)n2c1C1CC1C#N` (stereo not shown) [compound 234, 2-[7-[[5-bromo-3-(trifluoromethyl)pyrazol-1-yl]methyl]-2-methyl-5-oxo-thiazolo[3,2-a]pyrimidin-3-yl]cyclopropanecarbonitrile], the concentration giving a half-maximal response (EC50) (Table 3) worked out at 34.2 nM.

As to `Cc1sc2nc(CN(CCF)c3ccc(F)cc3)cc(=O)n2c1[C@@H]1C[C@H]1CO` (single isomer, unassigned) [Example 5.43, 7-[[4-fluoro-N-(2-fluoroethyl)anilino]methyl]-3-[trans-2-(hydroxymethyl)cyclopropyl]-2-methyl-thiazolo[3,2-a]pyrimidin-5-one], under “Table 2”, the concentration for a half-maximal effect (EC50) came out at 821 nM and the Max % stood at 145%.

On to `Cc1sc2nc(COc3ccc(F)cc3)cc(=O)n2c1C1CC1CO` (single isomer, unassigned) [Example 4.1, 7-(4-Fluorophenoxymethyl)-3-[trans-2-(hydroxymethyl)cyclopropyl]-2-methyl-5H-[1,3]thiazolo[3,2-a]pyrimidin-5-one], for which, under “Table 2”, the EC50 is 5100 nM and the Max % came out at 141%.

As for `CCN(Cc1cc(=O)n2c(CCC(N)=O)c(C)sc2n1)c1ccc(F)cc1` [Example 13.6, 3-(7-[[ethyl(4-fluorophenyl)amino]methyl]-2-methyl-5-oxo-5H-[1,3]thiazolo[3,2-a]pyrimidin-3-yl)propanamide], for the setting “Table 2”, the EC50 stood at 1400 nM and the Max % stood at 125%.

With `N#CC1CC1c1c(C(F)(F)F)sc2nc(Cn3nc(C(F)(F)F)cc3Cl)c(F)c(=O)n12` (single isomer, unassigned) [compound 277], the EC50 (Table 3) was 155 nM.

Take `Cc1sc2nc(Cn3nc(Cl)cc3C(F)(F)F)cc(=O)n2c1Br` [compound 216, 3-bromo-7-[[3-chloro-5-(trifluoromethyl)pyrazol-1-yl]methyl]-2-methyl-thiazolo[3,2-a]pyrimidin-5-one]: the EC50 (Table 3) is 59.4 nM.

Regarding `Cc1sc2nc(Cn3nc(C(F)(F)F)cc3Cl)cc(=O)n2c1/C=C/C(N)=O` [compound 264, (E)-3-[7-[[5-chloro-3-(trifluoromethyl)pyrazol-1-yl]methyl]-2-methyl-5-oxo-thiazolo[3,2-a]pyrimidin-3-yl]prop-2-enamide], the concentration for a half-maximal effect (EC50) (Table 3) was 5090 nM.
